From the kinase profiling compilation of Christmann-Franck et al. (2016)
Several values for one entry are separate records, joined by “and”; a condition that tells them apart may be missing. Identical values can stand only once. One block for each compound: values may come before it.

How the values were obtained:
Assay in all cases: radiometric filter-binding kinase assay, Kinase HotSpot
Settings in all cases: compound 0.5 µM; ATP 10 µM
ADRBK2 (human) = ADRBK2 (human) (UniProt P35626)
AKT3 (human) = AKT3 (human) (UniProt Q9Y243)
CAMK1 (human) = CAMK1 (human) (UniProt Q14012)
Sequence of CAMK1 (human) (Q14012 whole entry, looked up): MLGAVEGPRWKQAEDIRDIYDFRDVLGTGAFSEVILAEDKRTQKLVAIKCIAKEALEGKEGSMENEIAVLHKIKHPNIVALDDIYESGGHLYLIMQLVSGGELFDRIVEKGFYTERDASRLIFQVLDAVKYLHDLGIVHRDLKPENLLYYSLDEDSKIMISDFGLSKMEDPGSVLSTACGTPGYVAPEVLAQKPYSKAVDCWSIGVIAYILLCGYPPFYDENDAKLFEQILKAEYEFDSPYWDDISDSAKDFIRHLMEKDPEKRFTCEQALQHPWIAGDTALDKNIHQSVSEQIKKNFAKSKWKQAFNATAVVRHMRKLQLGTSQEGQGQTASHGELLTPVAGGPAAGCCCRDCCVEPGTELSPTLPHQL

CAMK2A (human) = CAMK2A (human) (UniProt Q9UQM7)
Sequence of CAMK2A (human) (Q9UQM7 whole entry, looked up): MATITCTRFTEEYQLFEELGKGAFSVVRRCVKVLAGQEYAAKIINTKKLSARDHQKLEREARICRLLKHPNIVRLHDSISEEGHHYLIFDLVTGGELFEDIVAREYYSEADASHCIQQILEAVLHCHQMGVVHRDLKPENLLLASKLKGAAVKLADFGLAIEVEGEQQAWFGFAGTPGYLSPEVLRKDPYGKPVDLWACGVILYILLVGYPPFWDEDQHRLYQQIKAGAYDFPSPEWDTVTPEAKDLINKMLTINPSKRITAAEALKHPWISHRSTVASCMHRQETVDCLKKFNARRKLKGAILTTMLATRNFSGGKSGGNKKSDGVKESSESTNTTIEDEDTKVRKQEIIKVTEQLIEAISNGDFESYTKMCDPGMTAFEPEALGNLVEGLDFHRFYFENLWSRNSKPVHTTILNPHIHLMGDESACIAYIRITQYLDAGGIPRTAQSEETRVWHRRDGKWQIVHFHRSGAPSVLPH

CDK6 CCND1 (human) = CDK6 CCND1 (human) (UniProt Q00534+P24385)
CLK2 (human) = CLK2 (human) (UniProt P49760)
CSNK1E (human) = CSNK1E (human) (UniProt P49674)
DCLK2 (human) = DCLK2 (human) (UniProt Q8N568)
DSTYK (human) = DSTYK (human) (UniProt Q6XUX3)
Sequence of DSTYK (human) (Q6XUX3 whole entry, looked up): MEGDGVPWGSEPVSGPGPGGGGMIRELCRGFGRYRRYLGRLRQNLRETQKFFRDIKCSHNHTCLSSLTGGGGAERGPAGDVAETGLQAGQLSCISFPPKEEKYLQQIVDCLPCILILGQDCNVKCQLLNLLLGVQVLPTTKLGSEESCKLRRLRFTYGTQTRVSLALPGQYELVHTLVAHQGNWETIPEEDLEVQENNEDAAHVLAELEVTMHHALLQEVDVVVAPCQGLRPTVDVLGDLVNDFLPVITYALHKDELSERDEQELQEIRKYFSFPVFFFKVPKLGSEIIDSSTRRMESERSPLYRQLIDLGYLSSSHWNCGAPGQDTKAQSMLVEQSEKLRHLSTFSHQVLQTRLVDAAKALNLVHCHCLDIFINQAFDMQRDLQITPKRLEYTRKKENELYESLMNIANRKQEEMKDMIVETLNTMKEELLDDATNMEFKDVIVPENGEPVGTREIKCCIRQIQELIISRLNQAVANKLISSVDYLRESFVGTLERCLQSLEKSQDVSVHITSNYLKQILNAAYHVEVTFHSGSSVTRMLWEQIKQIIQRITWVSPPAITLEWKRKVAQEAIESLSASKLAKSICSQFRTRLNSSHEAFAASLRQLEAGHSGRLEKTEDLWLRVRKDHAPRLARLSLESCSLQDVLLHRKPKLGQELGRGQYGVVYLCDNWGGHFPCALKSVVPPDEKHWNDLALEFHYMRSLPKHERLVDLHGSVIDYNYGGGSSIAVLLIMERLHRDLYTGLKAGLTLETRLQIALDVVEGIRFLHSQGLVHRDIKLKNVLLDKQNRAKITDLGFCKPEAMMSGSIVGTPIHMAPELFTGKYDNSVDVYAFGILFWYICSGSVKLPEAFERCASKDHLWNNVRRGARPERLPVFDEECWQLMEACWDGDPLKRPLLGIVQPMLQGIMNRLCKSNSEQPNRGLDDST

EPHA1 (human) = EPHA1 (human) (UniProt P21709)
GSG2 (human) = GSG2 (human) (UniProt Q8TF76)
INSR (human) = INSR (human) (UniProt P06213)
Sequence of INSR (human) (P06213 whole entry, looked up): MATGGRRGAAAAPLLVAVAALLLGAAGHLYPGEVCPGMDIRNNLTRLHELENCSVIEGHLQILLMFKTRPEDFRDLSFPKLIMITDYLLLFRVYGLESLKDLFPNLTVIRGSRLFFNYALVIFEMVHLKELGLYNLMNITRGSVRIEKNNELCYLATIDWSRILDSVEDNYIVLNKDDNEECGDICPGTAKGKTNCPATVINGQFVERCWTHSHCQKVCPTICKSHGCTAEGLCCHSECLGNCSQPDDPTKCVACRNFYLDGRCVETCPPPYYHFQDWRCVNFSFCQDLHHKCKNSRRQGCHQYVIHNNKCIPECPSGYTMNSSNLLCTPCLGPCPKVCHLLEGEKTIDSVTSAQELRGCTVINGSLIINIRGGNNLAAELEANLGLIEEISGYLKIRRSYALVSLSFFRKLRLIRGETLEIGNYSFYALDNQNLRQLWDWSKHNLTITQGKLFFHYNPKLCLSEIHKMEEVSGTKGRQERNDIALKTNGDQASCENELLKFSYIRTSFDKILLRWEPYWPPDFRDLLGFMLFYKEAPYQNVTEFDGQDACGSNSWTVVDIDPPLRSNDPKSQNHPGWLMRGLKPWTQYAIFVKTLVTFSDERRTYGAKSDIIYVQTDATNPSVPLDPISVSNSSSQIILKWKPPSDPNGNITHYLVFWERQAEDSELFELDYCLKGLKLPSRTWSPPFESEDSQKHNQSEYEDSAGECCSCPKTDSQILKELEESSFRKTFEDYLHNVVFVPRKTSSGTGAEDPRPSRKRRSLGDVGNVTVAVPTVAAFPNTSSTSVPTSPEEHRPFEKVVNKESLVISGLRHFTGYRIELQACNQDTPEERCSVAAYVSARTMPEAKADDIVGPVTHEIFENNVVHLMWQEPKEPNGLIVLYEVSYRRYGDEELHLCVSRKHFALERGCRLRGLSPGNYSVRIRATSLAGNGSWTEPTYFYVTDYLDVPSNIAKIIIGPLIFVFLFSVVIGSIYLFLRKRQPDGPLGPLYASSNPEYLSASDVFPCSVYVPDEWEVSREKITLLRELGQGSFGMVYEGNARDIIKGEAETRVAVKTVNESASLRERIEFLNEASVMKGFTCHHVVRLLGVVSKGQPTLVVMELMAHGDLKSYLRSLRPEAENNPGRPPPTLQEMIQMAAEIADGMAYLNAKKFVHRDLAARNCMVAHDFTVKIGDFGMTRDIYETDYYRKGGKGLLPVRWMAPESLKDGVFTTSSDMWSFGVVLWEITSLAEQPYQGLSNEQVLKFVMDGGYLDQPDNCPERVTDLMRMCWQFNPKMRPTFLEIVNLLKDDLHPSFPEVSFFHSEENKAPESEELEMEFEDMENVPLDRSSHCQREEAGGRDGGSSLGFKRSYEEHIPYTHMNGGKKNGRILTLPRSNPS

IRAK4 (human) = IRAK4 (human) (UniProt Q9NWZ3)
LTK (human) = LTK (human) (UniProt P29376)
MAP3K3 (human) = MAP3K3 (human) (UniProt Q99759)
MAP3K7 TAB1 (human) = MAP3K7 TAB1 (human) (UniProt O43318+Q15750)
MAP4K2 (human) = MAP4K2 (human) (UniProt Q12851)
MAPK10 (human) = MAPK10 (human) (UniProt P53779)
MAPK9 (human) = MAPK9 (human) (UniProt P45984)
MAPKAPK2 (human) = MAPKAPK2 (human) (UniProt P49137)
MELK (human) = MELK (human) (UniProt Q14680)
Sequence of MELK (human) (Q14680 whole entry, looked up): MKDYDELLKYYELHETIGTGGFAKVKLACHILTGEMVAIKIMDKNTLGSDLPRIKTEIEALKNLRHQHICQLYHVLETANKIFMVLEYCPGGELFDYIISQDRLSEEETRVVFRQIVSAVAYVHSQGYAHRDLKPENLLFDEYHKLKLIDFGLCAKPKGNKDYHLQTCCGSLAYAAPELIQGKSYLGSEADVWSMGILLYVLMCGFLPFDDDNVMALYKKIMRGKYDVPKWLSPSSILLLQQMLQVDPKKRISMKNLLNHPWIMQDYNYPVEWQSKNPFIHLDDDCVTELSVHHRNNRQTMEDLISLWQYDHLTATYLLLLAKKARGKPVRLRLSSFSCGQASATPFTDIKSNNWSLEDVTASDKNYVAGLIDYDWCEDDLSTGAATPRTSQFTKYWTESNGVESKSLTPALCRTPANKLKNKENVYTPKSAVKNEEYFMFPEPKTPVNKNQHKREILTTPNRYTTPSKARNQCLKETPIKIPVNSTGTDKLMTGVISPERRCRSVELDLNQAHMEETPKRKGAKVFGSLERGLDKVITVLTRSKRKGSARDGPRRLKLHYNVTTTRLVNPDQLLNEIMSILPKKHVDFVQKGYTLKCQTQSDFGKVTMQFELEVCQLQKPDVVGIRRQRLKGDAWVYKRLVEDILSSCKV

MUSK (human) = MUSK (human) (UniProt O15146)
Sequence of MUSK (human) (O15146 whole entry, looked up): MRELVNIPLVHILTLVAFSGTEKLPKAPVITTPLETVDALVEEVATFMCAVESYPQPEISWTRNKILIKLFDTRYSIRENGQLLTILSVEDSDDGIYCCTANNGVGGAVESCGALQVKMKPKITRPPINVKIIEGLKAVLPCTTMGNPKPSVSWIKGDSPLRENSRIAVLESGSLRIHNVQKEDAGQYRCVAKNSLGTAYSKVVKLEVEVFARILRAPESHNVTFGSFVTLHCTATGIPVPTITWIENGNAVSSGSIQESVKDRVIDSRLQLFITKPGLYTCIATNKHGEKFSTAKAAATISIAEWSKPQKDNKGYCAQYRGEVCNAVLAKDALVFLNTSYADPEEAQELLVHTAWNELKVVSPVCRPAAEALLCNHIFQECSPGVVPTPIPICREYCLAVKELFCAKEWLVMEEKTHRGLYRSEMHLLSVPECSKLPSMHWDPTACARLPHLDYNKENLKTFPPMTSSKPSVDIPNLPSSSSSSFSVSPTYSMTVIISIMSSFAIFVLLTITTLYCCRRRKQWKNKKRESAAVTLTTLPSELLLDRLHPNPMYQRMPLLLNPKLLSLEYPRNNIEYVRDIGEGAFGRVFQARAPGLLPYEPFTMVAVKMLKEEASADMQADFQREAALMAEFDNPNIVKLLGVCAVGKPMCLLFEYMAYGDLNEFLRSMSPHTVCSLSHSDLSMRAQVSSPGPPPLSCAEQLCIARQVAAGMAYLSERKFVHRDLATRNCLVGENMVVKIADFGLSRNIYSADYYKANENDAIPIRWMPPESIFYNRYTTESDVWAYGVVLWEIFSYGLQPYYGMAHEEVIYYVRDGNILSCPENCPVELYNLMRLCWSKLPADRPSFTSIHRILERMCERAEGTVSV

MYLK (human) = MYLK (human) (UniProt Q15746)
NEK3 (human) = NEK3 (human) (UniProt P51956)
NEK4 (human) = NEK4 (human) (UniProt P51957)
PAK1 (human) = PAK1 (human) (UniProt Q13153)
PAK3 (human) = PAK3 (human) (UniProt O75914)
PAK4 (human) = PAK4 (human) (UniProt O96013)
PBK (human) = PBK (human) (UniProt Q96KB5)
Sequence of PBK (human) (Q96KB5 whole entry, looked up): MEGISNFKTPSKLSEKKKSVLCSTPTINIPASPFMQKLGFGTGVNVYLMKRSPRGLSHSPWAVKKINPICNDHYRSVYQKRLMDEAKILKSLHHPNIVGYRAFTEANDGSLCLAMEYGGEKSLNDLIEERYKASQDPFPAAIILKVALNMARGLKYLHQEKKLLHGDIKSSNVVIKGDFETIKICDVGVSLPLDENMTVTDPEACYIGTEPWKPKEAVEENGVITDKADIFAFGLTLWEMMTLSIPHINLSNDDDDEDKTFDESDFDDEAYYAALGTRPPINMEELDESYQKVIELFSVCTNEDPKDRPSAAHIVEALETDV

PRKD3 (human) = PRKD3 (human) (UniProt O94806)
PRKX (human) = PRKX (human) (UniProt P51817)
RET (human) = RET (human) (UniProt P07949)
[1] = tested on: SGK1 (human), O00141 [S422D]
SRC (human) = SRC (human) (UniProt P12931)
STK24 (human) = STK24 (human) (UniProt Q9Y6E0)
STK33 (human) = STK33 (human) (UniProt Q9BYT3)
SYK (human) = SYK (human) (UniProt P43405)
TAOK2 (human) = TAOK2 (human) (UniProt Q9UL54)
TGFBR1 (human) = TGFBR1 (human) (UniProt P36897)
TGFBR2 (human) = TGFBR2 (human) (UniProt P37173)
TNK2 (human) = TNK2 (human) (UniProt Q07912)
LYN (human) = LYN (human) (UniProt P07948)

SMILES: N#CCCc1ccc2c(c1)-c1[nH]c3ccc([N+](=O)[O-])cc3c1CC(=O)N2
residual activity (ADRBK2 (human)): 97.1%
residual activity (AKT3 (human)): 95.5%
residual activity (CAMK1 (human)): 96%
residual activity (CAMK2A (human)): 69.1%
residual activity (CDK6 CCND1 (human)): 6.79%
residual activity (CLK2 (human)): 104%
residual activity (CSNK1E (human)): 91.4%
residual activity (DCLK2 (human)): 104%
residual activity (DSTYK (human)): 67.1%
residual activity (EPHA1 (human)): 91.7%
residual activity (GSG2 (human)): 110%
residual activity (INSR (human)): 94.1%
residual activity (IRAK4 (human)): 155%
residual activity (LTK (human)): 80%
residual activity (MAP3K3 (human)): 83.3%
residual activity (MAP3K7 TAB1 (human)): 38.1%
residual activity (MAP4K2 (human)): 14%
residual activity (MAPK10 (human)): 93.3%
residual activity (MAPK9 (human)): 97.1%
residual activity (MAPKAPK2 (human)): 83.4%
residual activity (MELK (human)): 88.6%
residual activity (MUSK (human)): 63%
residual activity (MYLK (human)): 95.2%
residual activity (NEK3 (human)): 104%
residual activity (NEK4 (human)): 104%
residual activity (PAK1 (human)): 52.1%
residual activity (PAK3 (human)): 97.1%
residual activity (PAK4 (human)): 86.4%
residual activity (PBK (human)): 95.4%
residual activity (PRKD3 (human)): 84%
residual activity (PRKX (human)): 78.4%
residual activity (RET (human)): 80.8%
residual activity [1]: 87.9%
residual activity (SRC (human)): 30.8%
residual activity (STK24 (human)): 57.7%
residual activity (STK33 (human)): 78.8%
residual activity (SYK (human)): 58%
residual activity (TAOK2 (human)): 86.4%
residual activity (TGFBR1 (human)): 103%
residual activity (TGFBR2 (human)): 10.1%
residual activity (TNK2 (human)): 75.4%

SMILES: Cn1cc(/C=C2\C(=O)Nc3ccc(S(N)(=O)=O)cc32)c2ccccc21
residual activity (ADRBK2 (human)): 111%
residual activity (AKT3 (human)): 97.4%
residual activity (CAMK1 (human)): 75.7%
residual activity (CAMK2A (human)): 57.6%
residual activity (CDK6 CCND1 (human)): 82.4%
residual activity (CLK2 (human)): 38.1%
residual activity (CSNK1E (human)): 89%
residual activity (DCLK2 (human)): 93.2%
residual activity (DSTYK (human)): 92.5%
residual activity (EPHA1 (human)): 101%
residual activity (GSG2 (human)): 93.1%
residual activity (INSR (human)): 87.4%
residual activity (IRAK4 (human)): 2.98%
residual activity (LTK (human)): 54.5%
residual activity (MAP3K3 (human)): 80.7%
residual activity (MAP3K7 TAB1 (human)): 48.9%
residual activity (MAP4K2 (human)): 17.4%
residual activity (MAPK10 (human)): 93.1%
residual activity (MAPK9 (human)): 93.8%
residual activity (MAPKAPK2 (human)): 101%
residual activity (MELK (human)): 63%
residual activity (MUSK (human)): 105%
residual activity (MYLK (human)): 95%
residual activity (NEK3 (human)): 66.2%
residual activity (NEK4 (human)): 81%
residual activity (PAK1 (human)): 90.8%
residual activity (PAK3 (human)): 93.8%
residual activity (PAK4 (human)): 86.2%
residual activity (PBK (human)): 99.6%
residual activity (PRKD3 (human)): 76.4%
residual activity (PRKX (human)): 81%
residual activity (RET (human)): 1.93%
residual activity [1]: 71.8%
residual activity (SRC (human)): 45.1%
residual activity (STK24 (human)): 80.2%
residual activity (STK33 (human)): 46.3%
residual activity (SYK (human)): 16.5%
residual activity (TAOK2 (human)): 86.4%
residual activity (TGFBR1 (human)): 97.8%
residual activity (TGFBR2 (human)): 101%
residual activity (TNK2 (human)): 72.3%

SMILES: FC(F)(F)c1ccc(/C=C/c2nc(COc3ccc(CCCCn4ccnn4)cc3)co2)cc1
residual activity (ADRBK2 (human)): 104%
residual activity (AKT3 (human)): 96.3%
residual activity (CAMK1 (human)): 105%
residual activity (CAMK2A (human)): 101%
residual activity (CDK6 CCND1 (human)): 95.4%
residual activity (CLK2 (human)): 89.6%
residual activity (CSNK1E (human)): 95.5%
residual activity (DCLK2 (human)): 102%
residual activity (DSTYK (human)): 88.8%
residual activity (EPHA1 (human)): 97.2%
residual activity (GSG2 (human)): 105%
residual activity (INSR (human)): 99.6%
residual activity (IRAK4 (human)): 97.7%
residual activity (LTK (human)): 104%
residual activity (LYN (human)): 104% and 95.8%
residual activity (MAP3K3 (human)): 112%
residual activity (MAP3K7 TAB1 (human)): 88.7%
residual activity (MAP4K2 (human)): 105%
residual activity (MAPK10 (human)): 94.6%
residual activity (MAPK9 (human)): 106%
residual activity (MAPKAPK2 (human)): 97.9%
residual activity (MELK (human)): 85.4%
residual activity (MUSK (human)): 104%
residual activity (MYLK (human)): 94.8%
residual activity (NEK3 (human)): 100%
residual activity (NEK4 (human)): 90%
residual activity (PAK1 (human)): 104%
residual activity (PAK3 (human)): 101%
residual activity (PAK4 (human)): 107%
residual activity (PBK (human)): 99.9%
residual activity (PRKD3 (human)): 93.3%
residual activity (PRKX (human)): 95.3%
residual activity (RET (human)): 101%
residual activity [1]: 102%
residual activity (SRC (human)): 92.5%
residual activity (STK24 (human)): 101%
residual activity (STK33 (human)): 93.7%
residual activity (SYK (human)): 97.4%
residual activity (TAOK2 (human)): 105%
residual activity (TGFBR1 (human)): 98.8%
residual activity (TGFBR2 (human)): 103%

residual activity (ADRBK2 (human)): 99.1%
residual activity (AKT3 (human)): 105%
residual activity (CAMK1 (human)): 101%
residual activity (CAMK2A (human)): 105%
residual activity (CDK6 CCND1 (human)): 89.7%
residual activity (CLK2 (human)): 48.5%
residual activity (CSNK1E (human)): 74.9%
residual activity (DCLK2 (human)): 96%
residual activity (DSTYK (human)): 93.4%
residual activity (EPHA1 (human)): 95.5%
residual activity (GSG2 (human)): 31%
residual activity (INSR (human)): 100%
residual activity (IRAK4 (human)): 83.7%
residual activity (LTK (human)): 83.1%
residual activity (LYN (human)): 96.2% and 96.4%
residual activity (MAP3K3 (human)): 94.7%
residual activity (MAP3K7 TAB1 (human)): 91.5%
residual activity (MAP4K2 (human)): 76.9%
residual activity (MAPK9 (human)): 67.5%
residual activity (MAPKAPK2 (human)): 97.8%
residual activity (MELK (human)): 91.7%
residual activity (MUSK (human)): 14.8%
residual activity (MYLK (human)): 97.9%
residual activity (NEK3 (human)): 87.9%
residual activity (NEK4 (human)): 89.1%
residual activity (PAK1 (human)): 96.5%
residual activity (PAK3 (human)): 102%
residual activity (PAK4 (human)): 91.3%
residual activity (PBK (human)): 99.7%
residual activity (PRKD3 (human)): 64.7%
residual activity (PRKX (human)): 96.4%
residual activity (RET (human)): 70.1%
residual activity [1]: 100%
residual activity (SRC (human)): 86.8%
residual activity (STK24 (human)): 95.6%
residual activity (STK33 (human)): 55.4%
residual activity (SYK (human)): 92.4%
residual activity (TAOK2 (human)): 86.4%
residual activity (TGFBR1 (human)): 97.8%
residual activity (TGFBR2 (human)): 102%
residual activity (TNK2 (human)): 42.8%
SMILES: N#C/C(=C1/Nc2ccccc2S1)c1ccnc(NCCc2cccnc2)n1
